Literature values, collected in patent publication US20210322405A1, “COMPOSITIONS AND METHODS FOR TREATING CANCER” (Washington University, priority 2020, published 2021).

How the values were obtained:
[1] = system: GBM patients; conditions: clinical trial; Butowski et al., 2016
[2] = system: ALK-inhibitor resistant ALK-driven patient-derived cell lines; conditions: SHP099 in combination with the ALK inhibitor ceritinib; Dardaei et al., 2018
[3] = system: G6PD; conditions: dose-dependent manner; Bernstock et al., 2017

FC(F)(F)c1ccc(CNc2ccc(Cc3c[nH]c4ncc(Cl)cc34)cn2)cn1 [PLX3397]
clinical benefit for GBM patients [1]: did not show clear benefit

CC1(N)CCN(c2cnc(-c3cccc(Cl)c3Cl)c(N)n2)CC1 [SHP099]
Shp2-activation-mediated resistance to ALK inhibitor [2]: overcome

CC[C@@]1(O)C(=O)OCc2c1cc1n(c2=O)Cc2cc3c(CN(C)C)c(O)ccc3nc2-1 [topotecan]
activity of G6PD [3]: decreases
